Data set [1] relates to human coronary artery smooth muscle cells (CASMC). Put plainly: Vascular smooth muscle cell (SMC) antiproliferation assay. Type of data set: cell-based. Particulars: viable cell count (Trypan Blue exclusion) ~68 hours after compound addition. On the procedure:
Suppression of Proliferation of Human Coronary Artery Smooth Muscle Cells (CASMC)
Vascular Smooth Muscle Cell (SMC) Antiproliferation Assay
The cells used in this assay were human coronary artery smooth muscle cells (CASMC) supplied by Clonetics Corp. (San Diego, Calif.). They were maintained in SmGM-2 growth medium (Clonetics Corp.), which consisted of modified MCDB 131 medium supplemented with 5% (v/v) fetal bovine serum (FBS), 0.5 ng/mL human recombinant epidermal growth factor (EGF), 2 ng/mL human recombinant fibroblast growth factor (FGF), 5 μg/mL bovine insulin, 50 μg/mL gentamicin sulfate, and 50 ng/mL amphotericin B under humidified 95% air-5% CO2 at 37° C. Cells were used for experiments up to about 17 cumulative population doublings (i.e., passage 9); at this age they still stained positive for smooth muscle actin, a protein marker for smooth muscle cells.
For the SMC antiproliferation assay, the cells were seeded at 3×10^4 viable cells in 2 mL of SmGM-2 medium per well of a Corning 24 tissue culture well plate (Corning, N.Y.). Stock solutions of the test compounds were prepared just prior to addition to the cells by dissolving in DMSO at a concentration of 1000 times the highest concentration to be assayed. This stock solution was diluted, as required, with DMSO to lower concentrations. On the same day the cells were seeded, but after they had attached and spread out (about 3 hours), each test compound in varying concentrations (2 μL of the diluted stock solutions) was added to four replicate wells (n=4) for each concentration. Control cultures received 2 μL of DMSO per well (n=4). On the following morning, the cultures were examined microscopically and their condition recorded. On the third day after test compound addition (˜68 hours), the cultures were examined microscopically again and the viable cells counted with an hemacytometer following trypsinization with 0.25% trypsin-1 mM EDTA. Trypan Blue dye exclusion was used to discriminate between viable and dead cells. The results were usually presented as % of the control viable cell count (mean±SEM) and were used to determine the IC50 for the inhibition of proliferation of vascular smooth muscle cells.

[2] abbreviates: Homo sapiens, n=4, read-out: IC 50 for the inhibition of proliferation of vascular smooth muscle cells, Nitrosated and/or Nitrosylated Compound.
[3] abbreviates: n=4, read-out: IC 50 for the inhibition of proliferation of vascular smooth muscle cells, Non-nitrosated and/or Non-nitrosylated Compound.

Each structure is given as a SMILES string. Read-outs that look alike come from different tables or passages of the source.

As a reminder, the melting point is the temperature, or range, at which the solid turns liquid. `C[C@]12CC[C@@H]3c4ccc(OCC(=O)OCCC5(SN=O)C6CC7CC(C6)CC5C7)cc4CC[C@H]3[C@@H]1CC[C@@H]2O` (stereo partly drawn) [Example 36b, 2-(2-(Nitrosothio)adamantan-2-yl)ethyl 2-((1S,11S,14S,15S,10R)-14-hydroxy-15-methyltetracyclo(8.7.0.0<2,7>0.0<11,15>)heptadeca-2,4,6-trien-5-yloxy)acetate]: the melting point is 48 to 50 °C. Also, the IC50 in data set [1] (setting [2]) came out at 5 µM.
With `C[C@]12CC[C@@H]3c4ccc(OC(=O)CC5(S)C6CC7CC(C6)CC5C7)cc4CC[C@H]3[C@@H]1CC[C@@H]2OC(=O)C(F)(F)F` (stereo partly drawn) [Example 17b, (1S,11S,14S,15S,10R)-15-methyl-5-(2-(2-sulfanyladamantan-2-yl)acetyloxy)tetracyclo(8.7.0.0<2,7>0.0<11,15>)heptadeca-2,4,6-trien-14-yl 2,2,2-trifluoroacetate], in data set [1] (n=4), the “IC 50 for the inhibition of proliferation of vascular smooth muscle cells, Non-nitrosated and/or Non-nitrosylated Compound” value is on record as “cytostatic”.
For the compound `CN(CCO[N+](=O)[O-])C(=O)CO/N=C1\C[C@@H]2[C@H](CC[C@]3(C)[C@@H](O)CC[C@@H]23)c2ccc(O)cc21`, the melting point is 125 to 127 °C (dec.).
As for `C[C@]12CC[C@@H]3c4ccc(O)cc4C(=NOCC(=O)O)C[C@H]3[C@@H]1CC[C@@H]2O` [Example 35a, 2-(((1S,11S,14S,15S,10R)-5,14-dihydroxy-15-methyltetracyclo(8.7.0.0<2,7>0.0<11-15>)heptadeca-2,4,6-trien-8-ylidene)azamethoxy)acetic acid, reference compound], the IC50 in data set [1] (setting [3]) was above 80 µM.
Compound `CC(C)(S)CNC(=O)CO/N=C1\C[C@@H]2[C@H](CC[C@]3(C)[C@@H](O)CC[C@@H]23)c2ccc(O)cc21` [Example 47, 2-(((1S,11S,14S,15S,10R)-5,14-dihydroxy-15-methyltetracyclo(8.7.0.0<2,7>0.0<11,15>)heptadeca-2,4,6-trien-8-ylidene)azamethoxy)-N-(2-methyl-2-sulfanylpropyl)acetamide] displayed a melting point of 87 to 90 °C. Besides, in data set [1] (setting [3]), the IC50 is above 80 µM.
In turn, `CC(C)(SN=O)C1COC(=O)N1CCOC(=O)COc1ccc2c(c1)CC[C@@H]1[C@@H]2CC[C@]2(C)[C@@H](O)CC[C@@H]12` (some centres unmarked) gave a melting point of 40 °C.
`CC1(C)CCC(S)(CCOC(=O)CCC(=O)Oc2ccc3c(c2)CC[C@@H]2[C@@H]3CC[C@]3(C)[C@@H](O)CC[C@@H]23)CC1` [Example 28h, (1S,11S,14S,15S,10R)-14-hydroxy-15-methyltetracyclo(8.7.0.0<2,7>0.0<11,15>)heptadeca-2,4,6-trien-5-yl 2-(4,4-dimethyl-1-sulfanylcyclohexyl)ethyl butane-1,4-dioate]: the IC50 in data set [1] (setting [3]) was determined as 14 µM.
The compound `CC(C)(S)CNC(=O)COc1ccc2c(c1)CC[C@@H]1[C@@H]2CC[C@]2(C)[C@@H](O)CC[C@@H]12` [Example 48, 2-((1S,11S,14S,15S,10R)-14-hydroxy-15-methyltetracyclo(8.7.0.0<2,7>0.0<11,15>)heptadeca-2,4,6-trien-5-yloxy)-N-(2-methyl-2-sulfanylpropyl)acetamide] came in with a melting point of 50 to 52 °C. Also, the IC50 in data set [1] (setting [3]) is 11 µM.
The like results for `COc1ccc(C=C2c3ccccc3C(=NO)c3ccccc32)cc1O` [Example 52, 5-((10-(Hydroxyimino)(9-anthrylidene))methyl)-2-methoxyphenol] were, in that order, 140 °C and 0.6 µM.
As for `C[C@]12CC[C@@H]3c4ccc(O)cc4/C(=N/OCC(=O)N4CCC(CCO[N+](=O)[O-])CC4)C[C@H]3[C@@H]1CC[C@@H]2O`, the melting point fell in the range of 102 to 105 °C.
Consider `C[C@]12CC[C@@H]3c4ccc(OC(=O)CC5(S)C6CC7CC(C6)CC5C7)cc4CC[C@H]3[C@@H]1CC[C@@H]2O` (stereo partly drawn) [Example 49, (1S,11S,14S,15S,10R)-14-hydroxy-15-methyltetracyclo(8.7.0.0<2,7>0.0<11,15>)heptadeca-2,4,6-trien-5-yl 2-(2-sulfanyladamantan-2-yl)acetate], for which the IC50 in data set [1] (setting [3]) turned out to be 4 µM.
Consider `C[C@]12CC[C@@H]3c4ccc(OC(=O)CC5(SN=O)C6CC7CC(C6)CC5C7)cc4CC[C@H]3[C@@H]1CC[C@@H]2OC(=O)C(F)(F)F` (stereo partly drawn) [Example 17c, (1S,11S,14S,15S,10R)-15-Methyl-5-(2-(2-(nitrosothio)adamantan-2-yl)acetyloxy)tetracyclo(8.7.0.0<2,7>0.0<11,15>)heptadeca-2,4,6-trien-14-yl 2,2,2-trifluoroacetate], for which, in data set [1] (n=4), the “IC 50 for the inhibition of proliferation of vascular smooth muscle cells, Nitrosated and/or Nitrosylated Compound” value is “Non-inhibitory”.
`C[C@]12CC[C@@H]3c4ccc(OC(=O)COCC(=O)O[C@H]5CO[C@H]6[C@@H]5OC[C@H]6O[N+](=O)[O-])cc4CC[C@H]3[C@@H]1CC[C@@H]2O` gave a melting point of 146 to 149 °C.
The compound `C[C@]12CC[C@@H]3c4ccc(O)cc4/C(=N/OCC(=O)N4CCC(CO[N+](=O)[O-])CC4)C[C@H]3[C@@H]1CC[C@@H]2O` yielded a melting point of 143 to 145 °C.
`COc1ccc(C=C2c3ccccc3C(=O)c3ccccc32)cc1OCC(=O)N1CCC(CO[N+](=O)[O-])CC1` [Example 53, 2-(2-Methoxy-5-((10-oxo(9-anthrylidene))methyl)phenoxy)-1-(4-((nitrooxy)methyl)piperidyl)ethan-1-one] returned a melting point of 63 to 65 °C.
In the case of `C[C@]12CC[C@@H]3c4ccc(OC(=O)CC5(SN=O)C6CC7CC(C6)CC5C7)cc4CC[C@H]3[C@@H]1CC[C@@H]2O` (stereo partly drawn) [Example 18, (1S,11S,14S,15S,10R)-14-hydroxy-15-methyltetracyclo(8.7.0.0<2,7>0.0<11,15>)heptadeca-2,4,6-trien-5-yl 2-(2-(nitrosothio)adamantan-2-yl)acetate], the IC50 in data set [1] (setting [2]) amounted to 9 µM.
As to `C[C@]12CC[C@@H]3c4ccc(OC(=O)c5ccccc5)cc4CC[C@H]3[C@@H]1CC[C@@H]2OC(=O)CCC(=O)OCCC1(S)C2CC3CC(C2)CC1C3` (some centres unmarked), the melting point lay in the range of 140 to 143 °C.
As to `C[C@]12CC[C@@H]3c4ccc(O)cc4/C(=N/OCC(=O)NCCO[N+](=O)[O-])C[C@H]3[C@@H]1CC[C@@H]2O`, the melting point is 140 °C (dec.).
As for `CC1(C)CCC(CCOC(=O)CCC(=O)Oc2ccc3c(c2)CC[C@@H]2[C@@H]3CC[C@]3(C)[C@@H](O)CC[C@@H]23)(SN=O)CC1` [Example 28i, (1S,11S,14S,15S,10R)-14-Hydroxy-15-methyltetracyclo(8.7.0.0<2,7>0.0<11,15>)heptadeca-2,4,6-trien-5-yl 2-(4,4-dimethyl-1-(nitrosothio)cyclohexyl)ethyl butane-1,4-dioate], the IC50 in data set [1] (setting [2]) amounted to 13 µM.
As for `C[C@]12CC[C@@H]3c4ccc(OC(=O)CCC(=O)OCCC5(SN=O)C6CC7CC(C6)CC5C7)cc4CC[C@H]3[C@@H]1CC[C@@H]2O` (stereo partly drawn) [Example 25, (1S,11S,14S,15S,10R)-14-Hydroxy-15-methyltetracyclo(8.7.0.0<2,7>0.0<11,15>)heptadeca-2,4,6-trien-5-yl 2-(2-(nitrosothio)adamantan-2-yl)ethyl butane-1,4-dioate], the IC50 in data set [1] (setting [2]) was 4 µM.
In the case of `C[C@]12CC[C@@H]3c4ccc(OC(=O)CCCC(=O)NCC5(SN=O)CCCCC5)cc4CC[C@H]3[C@@H]1CC[C@@H]2O`, the melting point is 50 to 52 °C.
`CN(CCO[N+](=O)[O-])C(=O)CO/N=C1\C[C@@H]2[C@H](CC[C@]3(C)[C@@H](O)CC[C@@H]23)c2ccc(O)cc21` [35 b]: the “IC 50 for the inhibition of proliferation of vascular smooth muscle cells, Nitrosated and/or Nitrosylated Compound” value in data set [1] (n=4) is “Non-inhibitory”.
The compound `CC(C)(SN=O)C1COC(=O)N1CCOC(=O)CO/N=C1\C[C@@H]2[C@H](CC[C@]3(C)[C@@H](O)CC[C@@H]23)c2ccc(O)cc21` (some centres unmarked) returned a melting point of 75 to 77 °C.
Still for that read-out and setting: with `COc1ccc(/C=C/C(=O)Nc2ccccc2C(=O)OCC(=O)NCC(C)(C)SN=O)cc1OC` [Example 1, (N-(2-Methyl-2-(nitrosothio)propyl)carbamoyl)methyl 2-((2E)-3-(3,4-dimethoxyphenyl)prop-2-enoylamino)benzoate] the figure was 135 to 137 °C.
As to `C[C@]12CC[C@@H]3c4ccc(OC(=O)c5ccccc5)cc4CC[C@H]3[C@@H]1CC[C@@H]2OC(=O)CCC(=O)O[C@H]1CO[C@H]2[C@@H]1OC[C@H]2O[N+](=O)[O-]` [Example 15, (1S,11S,14S,15S,10R)-15-Methyl-5-phenylcarbonyloxytetracyclo(8.7.0.0<2,7>0.0<11,15>)heptadeca-2,4,6-trien-14-yl(1S,2S,5S,6R)-6-(nitrooxy)-4,8-dioxabicyclo(3.3.0)oct-2-yl butane-1,4-dioate], in data set [1] (setting [2]), the IC50 is above 80 µM.

The values above are taken from patent US20060009431A1, “Nitrosated and nitrosylated compounds, compositions and methods use” (NitroMed, Inc., priority 2003, published 2006).
